Data published in patent US20120016009A1, “Optimized Methods For Delivery Of DSRNA Targeting The PCSK9 Gene” (priority 2008, published 2012).
In the oligonucleotide strings, read from the 5' end, every base follows the letter of its sugar. An asterisk marks phosphorothioate; unmarked linkages are phosphodiester. Other units and linkages are bracketed, terminal groups are in braces. A string of capitals states the bases alone. d = 2'-deoxy (DNA); m = 2'-O-methyl; r = 2'-OH (RNA)

Test system: PCSK9 mRNA
Assay: PCSK9 siRNA screening in HepG2 cells (lipofectamine 2000 transfection, PCSK9 mRNA by Quantigene, normalized to GAP-DH)
Format: cell-based, human
Conditions: for Mean percent remaining mRNA transcript at siRNA concentration/in cell type 3 nM/HepG2: 3 nM siRNA; for Mean percent remaining mRNA transcript at siRNA concentration/in cell type 30 nM/HepG2: 30 nM siRNA; for Mean percent remaining mRNA transcript at siRNA concentration/in cell type 100 nM/HepG2: 100 nM siRNA
Summary of the method: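 PCSK9 silencing was assessed in HepG2 cells by lipofectamine 2000 siRNA transfection in 96-well plates. Twenty-four hours later, lysates were analyzed with the Quantigene Explore Kit, with PCSK9 signal normalized to GAP-DH. Eight datapoints were collected per siRNA, and remaining transcript was expressed as a percentage of cells treated with an unrelated control siRNA duplex.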

Substance | Mean percent remaining mRNA transcript at siRNA concentration/in cell type 30 nM/HepG2 [%] | further results
AD-9650: PCSK9 siRNA (sense rGmCmUrGrGmUrGmCmUrArGmCmCmUmUrGmCrGmUdT*dT; antisense rArCrGmCrArArGrGrCmUrArGmCrArCmCrArGrCdT*dT) | 91 | Mean percent remaining mRNA transcript at siRNA concentration/in cell type 3 nM/HepG2: 90%
AD-9705: PCSK9 siRNA (sense rAmUmCrGrArGrGrArGrGrAmCmUmCmCmUmCmUrGdT*dT; antisense mCrArGrArGrGrArGrUrCrCrUrCrCrUrCrGrArUdT*dT) | 81 | 
AD-9521: PCSK9 siRNA (sense rCrUrCrCrUrArGrArCrArCrCrArGrCrArUrArCdT*dT; antisense rGrUrArUrGrCrUrGrGrUrGrUrCrUrArGrGrArGdT*dT) | 50 | 
AD-9609: PCSK9 siRNA (sense rCrArCrGrGrUrArCrCrGrGrGrCrGrGrArUrGrAdT*dT; antisense rUrCrArUrCrCrGrCrCrCrGrGrUrArCrCrGrUrGdT*dT) | 71 | Mean percent remaining mRNA transcript at siRNA concentration/in cell type 100 nM/HepG2: 66%
AD-9706: PCSK9 siRNA (sense mCmCmUrGmCrGmCrGmUrGmCmUmCrArAmCmUrGmCdT*dT; antisense rGmCrArGrUrUrGrArGmCrArCrGrCrGmCrArGrGdT*dT) | 86 | 
AD-9631: PCSK9 siRNA (sense rCrUrCrUrGrCrCrArArArGrArUrGrUrCrArUrCdT*dT; antisense rGrArUrGrArCrArUrCrUrUrUrGrGrCrArGrArGdT*dT) | 80 | 
AD-9677: PCSK9 siRNA (sense UGGCGGGUGGGUACAGCCGTT; antisense CGGCUGUACCCACCCGCCATT; chemistry not given here) | 62 | 
AD-9524: PCSK9 siRNA (sense rGrCrUrGrGrUrGrCrUrArGrCrCrUrUrGrCrGrUdT*dT; antisense rArCrGrCrArArGrGrCrUrArGrCrArCrCrArGrCdT*dT) | 23 | IC50: 0.07 nM; Mean percent remaining mRNA transcript at siRNA concentration/in cell type 3 nM/HepG2: 28%
AD-9601: PCSK9 siRNA (sense rArGrGrGrUrCrArUrGrGrUrCrArCrCrGrArCrUdT*dT; antisense rArGrUrCrGrGrUrGrArCrCrArUrGrArCrCrCrUdT*dT) | 111 | 
AD-9577: PCSK9 siRNA (sense rCrArCrCrArArGrGrArGrGrCrArGrGrArUrUrCdT*dT; antisense rGrArArUrCrCrUrGrCrCrUrCrCrUrUrGrGrUrGdT*dT) | 33 | Mean percent remaining mRNA transcript at siRNA concentration/in cell type 3 nM/HepG2: 31%
AD-9691: PCSK9 siRNA (sense mUrAmCmUmCmUrGmCmUmCmUrAmUrGmCmCrArGrGdT*dT; antisense rCrCrUrGrGmCrAmUrArGrArGmCrArGrArGmUrAdT*dT) | 49 | 
AD-9651: PCSK9 siRNA (sense rGrGrArGmUmUmUrAmUmUmCrGrGrArArArArGmCdT*dT; antisense rGrCrUrUrUrUrCrCrGrArAmUrArArArCrUrCrCdT*dT) | 58 | 
AD-9748: PCSK9 siRNA (sense mCmUrGmUmCmCmCmUmCmCmUmUrGrArGmCrAmCmCdT*dT; antisense rGrGrUrGrCrUmCrArArGrGrArGrGrGrAmCrArGdT*dT) | 103 | 
AD-9659: PCSK9 siRNA (sense rGrAmCmCrAmCmCrGrGrGrArArAmUmCrGrArGrGdT*dT; antisense rCrCrUrCrGrArUrUrUrCrCrCrGrGrUrGrGrUrCdT*dT) | 88 | 
AD-9563: PCSK9 siRNA (sense rCrGrCrUrGrCrCrGrGrCrArArCrUrUrCrCrGrGdT*dT; antisense rCrCrGrGrArArGrUrUrGrCrCrGrGrCrArGrCrGdT*dT) | 103 | 
AD-9744: PCSK9 siRNA (sense rGrArGmCrAmUrGrGrArAmUmCmCmCrGrGmCmCmCdT*dT; antisense rGrGrGrCrCrGrGrGrArUrUrCmCrArUrGrCrUrCdT*dT) | 91 | 
AD-9754: PCSK9 siRNA (sense mUmUmCmUmCmUrGmCmCrArArArGrAmUrGmUmCrAdT*dT; antisense rUrGrAmCrArUrCrUrUrUrGrGmCrArGrArGrArAdT*dT) | 89 | 

Substance | Mean percent remaining mRNA transcript at siRNA concentration/in cell type 30 nM/HepG2 [%] | further results
AD-9671: PCSK9 siRNA (sense rArGmUmCrArArGrGrArGmCrAmUrGrGrArAmUmCdT*dT; antisense rGrArUrUrCmCrArUrGrCrUrCrCrUrUrGrArCrUdT*dT) | 15 | IC50: 2.5 nM; Mean percent remaining mRNA transcript at siRNA concentration/in cell type 3 nM/HepG2: 33%
AD-9646: PCSK9 siRNA (sense mCmUrGrGmUrGmCmUrArGmCmCmUmUrGmCrGmUmUdT*dT; antisense rArArCrGmCrArArGrGrCmUrArGmCrArCmCrArGdT*dT) | 97 | Mean percent remaining mRNA transcript at siRNA concentration/in cell type 3 nM/HepG2: 108%
AD-9734: PCSK9 siRNA (sense mUrGmCmUrArGmCmCmUmUrGmCrGmUmUmCmCrGrAdT*dT; antisense rUrCrGrGrArArCrGmCrArArGrGrCmUrArGmCrAdT*dT) | 91 | 
AD-9614: PCSK9 siRNA (sense rGrGrCrArArCrUrUrCrCrGrGrGrArCrGrArUrGdT*dT; antisense rCrArUrCrGrUrCrCrCrGrGrArArGrUrUrGrCrCdT*dT) | 100 | 
AD-9596: PCSK9 siRNA (sense rGrArArGrArUrGrArGrUrGrGrCrGrArCrCrUrGdT*dT; antisense rCrArGrGrUrCrGrCrCrArCrUrCrArUrCrUrUrCdT*dT) | 37 | 
AD-9722: PCSK9 siRNA (sense rGrArArGrAmUrGrArGmUrGrGmCrGrAmCmCmUrGdT*dT; antisense mCrArGrGrUrCrGrCmCrArCrUmCrArUrCrUrUrCdT*dT) | 76 | 
AD-9652: PCSK9 siRNA (sense mUmCmCmCrArGmCmCrArGrGrAmUmUmCmCrGmCrGdT*dT; antisense rCrGrCrGrGrArArUrCrCrUrGrGrCrUrGrGrGrAdT*dT) | 97 | 
AD-9629: PCSK9 siRNA (sense rUrCrUrGrGrGrUrUrUrUrGrUrArGrCrArUrUrUdT*dT; antisense rArArArUrGrCrUrArCrArArArArCrCrCrArGrAdT*dT) | 23 | Mean percent remaining mRNA transcript at siRNA concentration/in cell type 3 nM/HepG2: 24%
AD-9718: PCSK9 siRNA (sense mCmCmUrArGrAmCrAmCmCrArGmCrAmUrAmCrArGdT*dT; antisense rCrUrGmUrArUrGrCrUrGrGrUrGrUrCmUrArGrGdT*dT) | 78 | 
AD-9642: PCSK9 siRNA (sense mUrGmUrAmUmCmUmCmCmUrArGrAmCrAmCmCrArGdT*dT; antisense rCrUrGrGrUrGrUrCmUrArGrGrArGrAmUrAmCrAdT*dT) | 105 | 
AD-9697: PCSK9 siRNA (sense rGmCmCrArGrGmUrGmCmUrGmCmCmUrGmCmUrAmCdT*dT; antisense rGmUrArGmCrArGrGmCrArGmCrArCrCrUrGrGrCdT*dT) | 74 | Mean percent remaining mRNA transcript at siRNA concentration/in cell type 3 nM/HepG2: 89%
AD-9764: PCSK9 siRNA (sense mCmUrGrGrArGmUmUmUrAmUmUmCrGrGrArArArAdT*dT; antisense rUrUrUrUrCrCrGrArAmUrArArArCrUrCmCrArGdT*dT) | 112 | 
AD-9539: PCSK9 siRNA (sense rGrGrUrGrGrArGrGrUrGrUrArUrCrUrCrCrUrAdT*dT; antisense rUrArGrGrArGrArUrArCrArCrCrUrCrCrArCrCdT*dT) | 63 | Mean percent remaining mRNA transcript at siRNA concentration/in cell type 100 nM/HepG2: 56%
AD-9635: PCSK9 siRNA (sense rGrUrCrUrGrCrCrGrArGrCrCrGrGrArGrCrUrCdT*dT; antisense rGrArGrCrUrCrCrGrGrCrUrCrGrGrCrArGrArCdT*dT) | 90 | Mean percent remaining mRNA transcript at siRNA concentration/in cell type 100 nM/HepG2: 73%
AD-9648: PCSK9 siRNA (sense rArArGrGrArGmCrAmUrGrGrArAmUmCmCmCrGrGdT*dT; antisense rCrCrGrGrGrArUrUrCmCrArUrGrCrUrCrCrUrUdT*dT) | 78 | 
AD-9558: PCSK9 siRNA (sense rUrArUrCrUrUrUrUrGrGrGrUrCrUrGrUrCrCrUdT*dT; antisense rArGrGrArCrArGrArCrCrCrArArArArGrArUrAdT*dT) | 66 | 
AD-9743: PCSK9 siRNA (sense rAmUrGmCmUrGmUmCmUrGmCmCrGrArGmCmCrGrGdT*dT; antisense rCrCrGrGrCrUrCrGrGmCrArGrAmCrArGmCrArUdT*dT) | 104 | 
